Eight compounds from patent publication US20080009416A1, “THIAZOLIUM COMPOUNDS AND USES THEREOF” (Mycosol, Inc., priority 2004, published 2008) can be followed below.

One test relates to male Lewis rats. The settings on record: intrapleural with carrageenan, 4 hours.
Another test deals with Pyricularia oryzae. The format is cell-based. As to conditions: Pyricularia oryzae (Rice); 18° C., 7 days; growth reduced by at least 90% vs control, OD 405 nm.
The subject of the next test is Phytophthora infestans. The format is cell-based. As to conditions: Phytophthora infestans (Tomato); 18° C., 7 days; growth reduced by at least 90% vs control, OD 405 nm.
The next test has as its system Botrytis cinerea. As to the kind of experiment: Anti-Fungal Activity in Plant Relevant Molds In Vitro Microtitre Test. The format is cell-based. The settings on record: Botrytis cinerea (Vegetable); 18° C., 7 days; growth reduced by at least 90% vs control, OD 405 nm. As to the method:
(§1) Compounds III, IV and V were prepared and were subjected to Anti-Fungal Activity in Plant Relevant Molds In Vitro Microtitre Tests.
(§2) A stock solution of each compound was prepared in DMSO at a concentration of 10,000 ppm a.i. Further dilutions were prepared with water. The test was conducted at the following concentrations: 125, 31, 8, […], 0.5 and 0.125 ppm a.i. Spore suspensions of the fungi were prepared. The test was conducted in microtiter plates and for each fungus and each concentration, 3 wells were prepared. Incubation of the inoculated plates was carried out at 18° C. for 7 days. After this time, the optical density of the mycelium developed in each well was measured at 405 nm.
(§3) The data produced allowed an assessment of the IC 90 value (the concentration at which the fungal growth was reduced by at least 90% compared to the control).

A further test deals with Rhizoctonia solani. The test is described as above. The format is cell-based. As to conditions: Rhizoctonia solani (Rice Sheath); 18° C., 7 days; growth reduced by at least 90% vs control, OD 405 nm. On the procedure:
as §1, §2, §3

For the next test, the system named is Pyrenophora teres. The description is as above. The format is cell-based. As to conditions: Pyrenophora teres (Barley); 18° C., 7 days; growth reduced by at least 90% vs control, OD 405 nm. On the procedure:
as §1, §2, §3

The test system of test [1] is Colletotrichum lagenarium. The description is as above. The format is cell-based. As to conditions: Colletotrichum lagenarium (Mellons); 18° C., 7 days; growth reduced by at least 90% vs control, OD 405 nm. On the procedure: as §1, §2, §3
Another test deals with Fusarium culmorum. Described as above. The format is cell-based. As to conditions: Fusarium culmorum (Wheat Head); 18° C., 7 days; growth reduced by at least 90% vs control, OD 405 nm. On the procedure:
as §1, §2, §3

The next test concerns Alternaria solani. The description is as above. The format is cell-based. As to conditions: Alternaria solani (Potato); 18° C., 7 days; growth reduced by at least 90% vs control, OD 405 nm. On the procedure:
as §1, §2, §3

The test system of another test is Septonia tritici. Described as above. The format is cell-based. The settings on record: Septonia tritici (Wheat Leaf); 18° C., 7 days; growth reduced by at least 90% vs control, OD 405 nm. As to the method: as §1, §2, §3
A further test has as its system Cochliobolus mijabeanus. Described as above. The format is cell-based. As to conditions: Cochliobolus mijabeanus (Corn); 18° C., 7 days; growth reduced by at least 90% vs control, OD 405 nm. On the procedure:
as §1, §2, §3

Procedure for male Lewis rats: Acute Anti-Inflammatory Activity in the 4HR Carrageenan Pleurisy Assay in Rats
The Acute Local Carrageenan Pleuritis Assay in Rats is an in vivo model to determine local acute anti-inflammatory activity of compounds based on inhibition of edema formation and neutrophil mobilization into the pleural cavity. In this assay, male Lewis rats of approximately 200 gms were utilized. A carrageenan solution (400 μg/ml) was prepared in water. The experimental compounds were mixed into the carrageenan solution. The carrageenan +/− compounds was injected intrapleurally 0.25 cc/rat. The rats were sacrificed four hours later. The pleural cavity was opened and measured and the exudate extracted. The pleural cavity was washed with 5 cc EDTA solution to capture pleural cells. The total WBCs in the wash were counted and recording. Next the compound inhibition of exudate volume and inflammatory cell influx wash determined. Every experiment included a positive (prednisolone) and negative control group.

Consider `Cc1scc(-c2ccc(C3CCCCC3)cc2)[n+]1C.[I-]` [2,3-dimethyl-4(p-cyclohexylphenyl) thiazolium iodide], for which the “Acute Anti-inflammatory Activity in Rats ED50” value in the test with male Lewis rats amounted to 0.02 mg/rat.

Take `CCOc1ccc(-c2csc(C=Cc3ccc(N(CC)CC)cc3)[n+]2C)cc1.[I-]` [2-(4′-diethylaminostyryl)-4-(4″-ethoxyphenyl)-3-methyl-thiazolium iodide]: the “Acute Anti-inflammatory Activity in Rats ED50” value in the test on male Lewis rats came out at 0.001 mg/rat.

For the compound `CCN(CC)c1ccc(C=Cc2scc(-c3ccc(CC(C)C)cc3)[n+]2C)cc1.[I-]` [2-[2-(4-diethylamino-phenyl)vinyl]-4-(4-isobutyl-phenyl)-3-methyl-thiazolium iodide], in the test with male Lewis rats, the “Acute Anti-inflammatory Activity in Rats ED50” value was determined as 0.0003 mg/rat.

On to `CC[n+]1c(-c2ccc(-c3ccccc3)cc2)csc1C=Cc1ccc(N2CCCC2)cc1.[I-]` [4-(4-biphenyl)-3-ethyl-2-[(4-pyrrolidino)styryl]thiazolium iodide], for which the “Acute Anti-inflammatory Activity in Rats ED50” value in the test on male Lewis rats worked out at 0.001 mg/rat.

In the case of `CC(C)Cc1ccc(-c2csc(C=Cc3ccc(N4CCCC4)cc3)[n+]2C)cc1.[I-]` [4-(4-isobutylphenyl)-3-methyl-2-[2-(4-pyrrolidin-1-yl-phenyl)vinyl]-thiazolium iodide], the “Acute Anti-inflammatory Activity in Rats ED50” value in the test with male Lewis rats is recorded as 0.0004 mg/rat.

As to `CCN(CC)c1ccc(/C=C/c2scc(-c3ccc(OC)cc3)[n+]2C)cc1.[I-]` [Formula III], the IC90 in the test with Pyricularia oryzae is 8 ppm; in the test with Phytophthora infestans, 2 ppm; in the test with Botrytis cinerea, 2 ppm; with Rhizoctonia solani, 8 ppm; in the test with Pyrenophora teres it was 8 ppm; in [1] it was 8 ppm. In addition, the IC90 in the test with Fusarium culmorum is recorded as 31 ppm; in the test with Alternaria solani, 31 ppm; with Septonia tritici, 2 ppm; in the test on Cochliobolus mijabeanus, 2 ppm.

As to `CC(C)c1ccc(C(C)C)c(-c2csc(/C=C/c3ccc(N(C)C)cc3)[n+]2C)c1.[I-]` [Formula IV, E-2-(N,N′-dimethylaminostyryl)-3-methyl-4-(2,5-diisopropylphenyl)thiazolium iodide], the IC90 in the test with Pyricularia oryzae worked out at 8 ppm; in the test on Phytophthora infestans, 8 ppm; with Botrytis cinerea it was 2 ppm; with Rhizoctonia solani, 8 ppm; in the test on Pyrenophora teres it was 8 ppm; in test [1], 8 ppm. Further, the IC90 with Fusarium culmorum is 125 ppm; in the test on Alternaria solani, 8 ppm; in the test on Septonia tritici, 2 ppm; in the test on Cochliobolus mijabeanus, 8 ppm. In addition, the “Acute Anti-inflammatory Activity in Rats ED50” value with male Lewis rats was determined as 0.0002 mg/rat.

In the case of `Cc1cc(-c2csc(/C=C/c3ccc(N(C)C)cc3)[n+]2C)c(C)c(C)c1C.[I-]` [Formula V, E-2-(N,N′-dimethylaminostyryl)-3-methyl-4-(2,3,4,5-tetramethylphenyl)thiazolium iodide], the IC90 in the test with Pyricularia oryzae stood at 8 ppm; in the test with Phytophthora infestans it was 2 ppm; in the test on Botrytis cinerea it was 2 ppm; in the test with Rhizoctonia solani it was 8 ppm; with Pyrenophora teres, 8 ppm; in test [1] it was 8 ppm. Also, the IC90 is 31 ppm in the test with Fusarium culmorum, 8 ppm in the test on Alternaria solani, 2 ppm in the test on Septonia tritici and 8 ppm in the test with Cochliobolus mijabeanus.
